Molecular target: 15-PGDH (Homo sapiens (Human), UniProt P15428)
Assay: Assay for the activities of 15-PGDH inhibitors (formation of NADH at 340 nm)
Type: biochemical
Settings: purified 15-PGDH enzyme, 21 μM PGE2, 0.25 mM NAD+, pH 7.5; concentration inhibiting 50% of 15-PGDH activity
Method: <1-1> Expression and Purification of 15-PGDH
A 15-PGDH cDNA plasmid containing BamHI and EcoRI sites of the pGES-2T expression vector was used to transform Escherichia coli BL-21 lysS in accordance with the ordinarily used in the art. The transformed cells were grown in 500 mL LB medium containing 50 μg/mL ampicillin at 37° C. while being stirred at 220 rpm until the OD600 reached 0.6. Isopropyl β-D-thiogalactoside (1 mM) was added and the cells were allowed to grow for 12 hours at 25° C. Then, the pellets were harvested by centrifugation at 4000×g for 30 minutes at 4° C. The cell pallets were resuspended in 20 mL cell lysis buffer (1×PBS buffer (pH 7.4) containing 1 mM EDTA and 0.1 mM DTT) and sonicated (14×10 s at 4° C.). The disrupted cells were centrifuged at 4000×g for 20 minutes at 4° C. The supernatant was loaded slowly on a glutathione-sepharose 4B column, which was equilibrated at 4° C. with a cell lysis buffer (1×PBS buffer (pH 7.4) containing 1 mM EDTA and 0.1 mM DTT). The column was washed with the lysis buffer until OD280 reached below 0.005. Then, 15-PGDH was eluted from the glutathione-sepharose 4B column at room temperature for 5 minutes by using the elution buffer (50 mM Tris-HCl (pH 8.0) containing 10 mM reduced glutathione, 1 mM EDTA and 0.1 mM DTT). The concentration and the purity of the purified enzyme were determined by SDS-PAGE.
<1-2> Assay for the Activities of 15-PGDH Inhibitors
The absorbance of the reaction mixture was recorded at 340 nm so that the activities of the derivatives according to the present invention as 15-PGDH inhibitors were determined from a standard curve prepared from the absorbance of various concentrations of NADH at 340 nm.

Chain of 15-PGDH (P15428 whole entry): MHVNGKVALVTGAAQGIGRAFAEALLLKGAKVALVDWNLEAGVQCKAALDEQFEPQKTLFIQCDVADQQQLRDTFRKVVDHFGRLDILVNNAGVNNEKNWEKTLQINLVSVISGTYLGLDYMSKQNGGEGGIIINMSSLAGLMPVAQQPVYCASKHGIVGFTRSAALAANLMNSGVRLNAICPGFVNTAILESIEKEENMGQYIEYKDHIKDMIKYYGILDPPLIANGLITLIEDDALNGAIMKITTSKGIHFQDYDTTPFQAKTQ

| Structure (SMILES) | IC50 |
| --- | --- |
| CC1(COc2ccc(/C=C3\SC(=O)NC3=O)cc2)CCCCC1 [Derivative 43, 5-(4-((1-methylcyclohexyl)methoxy)benzylidene)thiazolidine-2,4-dione] | 547 nM |
| O=C1NC(=O)C(Cc2ccc(OCc3ccc(-c4ccccc4)cc3)cc2)S1 (stereo not drawn) [Derivative 129, 5-(4-(biphenyl-4-ylmethoxy)benzyl)thiazolidine-2,4-dione] | 1080 nM |
| O=C1NC(=O)/C(=C/c2ccc(OCCC3CCCCC3)c(F)c2)S1 [Derivative 20, 5-(4-(2-cyclohexylethoxy)-3-fluorobenzylidene)thiazolidine-2,4-dione] | 50.8 nM |
| CC(C)OCCOc1ccc(/C=C2\SC(=O)NC2=O)cc1Cl [Derivative 94, 5-{3-chloro-4-[2-(propan-2-yloxy)ethoxy]benzylidene}-1,3-thiazolidine-2,4-dione] | 2740 nM |
| O=C1NC(=O)/C(=C/c2ccc(OCc3ccsc3)cc2)S1 [Derivative 23, 5-(4-(thiophen-3-ylmethoxy)benzylidene)thiazolidine-2,4-dione] | 392 nM |
| O=C1NC(=O)C(Cc2ccc(OCCC3CCCCC3)cc2)S1 (stereo not drawn) [Derivative 113, 5-(4-(2-cyclohexylethoxy)benzyl)thiazolidine-2,4-dione] | 977 nM |
| O=C1NC(=O)/C(=C/c2ccc(OCc3cccs3)cc2)S1 [Derivative 22, 5-(4-(thiophen-2-ylmethoxy)benzylidene)thiazolidine-2,4-dione] | 251 nM |
| O=C1NC(=O)/C(=C/c2ccc(OCCc3ccccc3)c(Cl)c2)S1 [Derivative 69, 5-(3-chloro-4-phenylethoxybenzylidene)thiazolidine-2,4-dione] | 19.8 nM |
| O=C1NC(=O)C(Cc2ccc(OCCC3CCCCC3)cc2Cl)S1 (stereo not drawn) [Derivative 127, 5-(2-chloro-4-(2-cyclohexylethoxy)benzyl)thiazolidine-2,4-dione] | 158 nM |
| CC1CCC(COc2cccc(/C=C3\SC(=O)NC3=O)c2Cl)CC1 (stereo not drawn) [Derivative 91, 5-{2-chloro-3-[(4-methylcyclohexyl)methoxy]benzylidene}-1,3-thiazolidine-2,4-dione] | 135 nM |
| O=C1NC(=O)C(Cc2ccc(OCC3CCCC3)cc2)S1 (stereo not drawn) [Derivative 123, 5-(4-(cyclopentylmethoxy)benzyl)thiazolidine-2,4-dione] | 205 nM |
| O=C1NC(=O)/C(=C/c2ccc(OCCN3CCOCC3)cc2)S1 [Derivative 2, 5-(4-(2-morpholinoethoxy)benzylidene)thiazolidine-2,4-dione] | 515 nM |
| O=C1NC(=O)/C(=C/c2ccc(OCCc3cccs3)cc2)S1 [Derivative 3, 5-(4-(2-(thiophen-2-yl)ethoxy)benzylidene)thiazolidine-2,4-dione] | 95.9 nM |
| O=C1NC(=O)/C(=C/c2cccc(OCCc3ccccn3)c2Cl)S1 [Derivative 93] | 10300 nM |

Further lines, results first:

| IC50 | Structure (SMILES) |
| --- | --- |
| 59 nM | O=C1NC(=O)/C(=C/c2cccc(OCCCC3CCCCC3)c2Cl)S1 [Derivative 64, 5-(2-chloro-3-(cyclohexylpropoxy)benzylidene)thiazolidine-2,4-dione] |
| 233 nM | O=C1NC(=O)/C(=C/c2cccc(OCCOC3CCCCC3)c2Cl)S1 [Derivative 110, 5-{2-chloro-3-[2-(cyclohexyloxy)ethoxy]benzylidene}-1,3-thiazolidine-2,4-dione] |
| 822 nM | O=C1NC(=O)/C(=C/c2ccc(OC3CCCCC3)cc2)S1 [Derivative 45, 5-(4-(cyclohexyloxy)benzylidene)thiazolidine-2,4-dione] |
| 233 nM | O=C1NC(=O)/C(=C/c2ccc(OC3CCCCC3)cc2Cl)S1 [Derivative 95, 5-(2-chloro-4-(cyclohexyloxy)benzylidene)thiazolidine-2,4-dione] |
| 55 nM | Cc1cc(/C=C2\SC(=O)NC2=O)ccc1OCCC1CCCCC1 [Derivative 9, 5-(4-(2-cyclohexylethoxy)-3-methylbenzylidene)thiazolidine-2,4-dione] |
| 19.6 nM | O=C1NC(=O)/C(=C/c2ccc(OCCC3CCCCC3)cc2Cl)S1 [Derivative 18, 5-(2-chloro-4-(2-cyclohexylethoxy)benzylidene)thiazolidine-2,4-dione] |
| 212 nM | O=C1NC(=O)/C(=C/c2cccc(OC3CCCCC3)c2Cl)S1 [Derivative 99, 5-(2-chloro-3-(cyclohexyloxy)benzylidene)thiazolidine-2,4-dione] |

From patent US8637558B2 (Industry-Academic Cooperation Foundation, Chosun University, priority 2008, dated 2014)
